Experimental data taken from US11352354B2, “Substituted penta-fused hexa-heterocyclic compounds, preparation method therefor, drug combination and use thereof” (Xiamen University, priority 2017, dated 2022).
“And” between values parts separate entries of the source, which are not always exact repeats. Equal entries are not always repeated. “Also recorded” adds a separate entry of the source.

What was measured:
[1] = biological target: PIKfyve protein (Homo sapiens (Human), UniProt Q9Y2I7); test: Dissociation equilibrium constant (Kd) of compound and PIKfyve protein, DiscoverX KINOMEscan; assay type: binding; settings: eleven 3-fold dilutions, curve fitting
Method: II. Determination of Dissociation Equilibrium Constant (Kd Value) of Compound and PIKfyve Protein
The Kd value was determined by DiscoverX's KINOMEscan™ technology according to the following steps:
1. Preparation of magnetic beads: biotin-labeled small molecule ligand and avidin-coated magnetic beads were allowed to interact at room temperature for 30 minutes, and then added with excess biotin, followed by washing with a blocking solution (1% BSA, 0.05% Tween 20, 1 mM DTT) to remove unbound ligand.
2. Binding reaction: in a 384 plate, 0.02 mL system, DNA-labeled protein, small molecule ligand-bound magnetic beads, and different concentrations of compound to be tested were mixed in a reaction solution (0.17×PBS, 0.05% Tween 20, 6 mM DTT) at room temperature with shaking for 1 hr, to which was added an eluant (1×PBS, 0.05% Tween 20) for elution. Magnetic beads were resuspended by an eluant (1×PBS, 0.05% Tween 20, 0.5 μM non-biotin-labeled small molecule ligand), and shaken at room temperature for 30 min before separating out the eluant.
3. Determination of Kd value: the content of protein in the above eluate was determined by qPCR. Eleven 3-fold dilution concentrations were determined for the compound to be tested, with 3 DMSO controls for each concentration, and the Kd value was obtained by curve fitting.

[2] = tested on: Toledo cells; test: Growth inhibition of PIKfyve-mediated tumor cells by Cell Titer Glo method, Toledo; assay type: cell-based; settings: Homo sapiens, 120 h, CellTiter-Glo, 5 days of culture, read-out: Inhibition rate % (Toledo)
Method: (§1) IV. Determination of Growth Inhibition Rates of Compounds Against PIKfyve-Mediated Tumor Cells by Cell Titer Glo Method
(§2) 1. Cell plating: cells in logarithmic growth phase were counted and inoculated in 384-well plate.
(§3) 3. […] RLU was measured on PHERAstar Plus.

[3] = tested on: MDA-MB-231 cells; test: Vacuolation of MDA-MB-231 cells caused by inhibition of compounds on PIKfyve (microscopy); assay type: cell-based; settings: for degree of vacuolation, 1 μM, 24 h / degree of vacuolation, 1 μM, 48 h / degree of vacuolation, 10 μM, 24 h / degree of vacuolation, 10 μM, 48 h: MDA-MB-231 cells; on degree of vacuolation, 1 μM, 24 h: key: '+' represents the degree of vacuolation; ++: more '+' indicates more obvious vacuolation; +++: more '+' indicates more obvious vacuolation; ++++: more '+' indicates more obvious vacuolation; '−' represents no vacuolation; on degree of vacuolation, 1 μM, 48 h: key: '+' represents the degree of vacuolation; ++: more '+' indicates more obvious vacuolation; +++: more '+' indicates more obvious vacuolation; ++++: more '+' indicates more obvious vacuolation; '−' represents no vacuolation; on degree of vacuolation, 10 μM, 24 h: key: '+' represents the degree of vacuolation; ++: more '+' indicates more obvious vacuolation; +++: more '+' indicates more obvious vacuolation; ++++: more '+' indicates more obvious vacuolation; '−' represents no vacuolation; on degree of vacuolation, 10 μM, 48 h: key: '+' represents the degree of vacuolation; ++: more '+' indicates more obvious vacuolation; +++: more '+' indicates more obvious vacuolation; ++++: more '+' indicates more obvious vacuolation; '−' represents no vacuolation
How it was run: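 MDA-MB-231 cells in 12-well plates at 37 °C, 5% CO2 were observed by microscopy after 24 and 48 h of culture for cytoplasmic vacuolation as a readout of PIKfyve inhibition. Scoring was semi-quantitative, from − (none) to increasing +.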

[4] = tested on: ST486 cells; test: Growth inhibition of PIKfyve-mediated tumor cells by Cell Titer Glo method, ST486; assay type: cell-based; settings: Homo sapiens, 120 h, CellTiter-Glo, 5 days of culture, read-out: Inhibition rate % (ST486)
Method: as §1, §2, §3

[5] = tested on: JeKo-1 cells; test: Tumor cell growth inhibition by MTS method, JeKo-1; assay type: cell-based; settings: Homo sapiens, JeKo-1, 120 h, 5 days of culture; for inhibition at 10 µM: read-out: cell growth inhibition rate of compounds at 10 μM
How it was run: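 Cells seeded at 20000 per well, treated with 8-point 3-fold dilutions from 10 mM DMSO stock in triplicate, 0.1% DMSO controls. MTS read at OD490; IC50 from inhibition rates, or % inhibition at 10 μM.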

PIKfyve protein, sequence (Q9Y2I7 whole entry): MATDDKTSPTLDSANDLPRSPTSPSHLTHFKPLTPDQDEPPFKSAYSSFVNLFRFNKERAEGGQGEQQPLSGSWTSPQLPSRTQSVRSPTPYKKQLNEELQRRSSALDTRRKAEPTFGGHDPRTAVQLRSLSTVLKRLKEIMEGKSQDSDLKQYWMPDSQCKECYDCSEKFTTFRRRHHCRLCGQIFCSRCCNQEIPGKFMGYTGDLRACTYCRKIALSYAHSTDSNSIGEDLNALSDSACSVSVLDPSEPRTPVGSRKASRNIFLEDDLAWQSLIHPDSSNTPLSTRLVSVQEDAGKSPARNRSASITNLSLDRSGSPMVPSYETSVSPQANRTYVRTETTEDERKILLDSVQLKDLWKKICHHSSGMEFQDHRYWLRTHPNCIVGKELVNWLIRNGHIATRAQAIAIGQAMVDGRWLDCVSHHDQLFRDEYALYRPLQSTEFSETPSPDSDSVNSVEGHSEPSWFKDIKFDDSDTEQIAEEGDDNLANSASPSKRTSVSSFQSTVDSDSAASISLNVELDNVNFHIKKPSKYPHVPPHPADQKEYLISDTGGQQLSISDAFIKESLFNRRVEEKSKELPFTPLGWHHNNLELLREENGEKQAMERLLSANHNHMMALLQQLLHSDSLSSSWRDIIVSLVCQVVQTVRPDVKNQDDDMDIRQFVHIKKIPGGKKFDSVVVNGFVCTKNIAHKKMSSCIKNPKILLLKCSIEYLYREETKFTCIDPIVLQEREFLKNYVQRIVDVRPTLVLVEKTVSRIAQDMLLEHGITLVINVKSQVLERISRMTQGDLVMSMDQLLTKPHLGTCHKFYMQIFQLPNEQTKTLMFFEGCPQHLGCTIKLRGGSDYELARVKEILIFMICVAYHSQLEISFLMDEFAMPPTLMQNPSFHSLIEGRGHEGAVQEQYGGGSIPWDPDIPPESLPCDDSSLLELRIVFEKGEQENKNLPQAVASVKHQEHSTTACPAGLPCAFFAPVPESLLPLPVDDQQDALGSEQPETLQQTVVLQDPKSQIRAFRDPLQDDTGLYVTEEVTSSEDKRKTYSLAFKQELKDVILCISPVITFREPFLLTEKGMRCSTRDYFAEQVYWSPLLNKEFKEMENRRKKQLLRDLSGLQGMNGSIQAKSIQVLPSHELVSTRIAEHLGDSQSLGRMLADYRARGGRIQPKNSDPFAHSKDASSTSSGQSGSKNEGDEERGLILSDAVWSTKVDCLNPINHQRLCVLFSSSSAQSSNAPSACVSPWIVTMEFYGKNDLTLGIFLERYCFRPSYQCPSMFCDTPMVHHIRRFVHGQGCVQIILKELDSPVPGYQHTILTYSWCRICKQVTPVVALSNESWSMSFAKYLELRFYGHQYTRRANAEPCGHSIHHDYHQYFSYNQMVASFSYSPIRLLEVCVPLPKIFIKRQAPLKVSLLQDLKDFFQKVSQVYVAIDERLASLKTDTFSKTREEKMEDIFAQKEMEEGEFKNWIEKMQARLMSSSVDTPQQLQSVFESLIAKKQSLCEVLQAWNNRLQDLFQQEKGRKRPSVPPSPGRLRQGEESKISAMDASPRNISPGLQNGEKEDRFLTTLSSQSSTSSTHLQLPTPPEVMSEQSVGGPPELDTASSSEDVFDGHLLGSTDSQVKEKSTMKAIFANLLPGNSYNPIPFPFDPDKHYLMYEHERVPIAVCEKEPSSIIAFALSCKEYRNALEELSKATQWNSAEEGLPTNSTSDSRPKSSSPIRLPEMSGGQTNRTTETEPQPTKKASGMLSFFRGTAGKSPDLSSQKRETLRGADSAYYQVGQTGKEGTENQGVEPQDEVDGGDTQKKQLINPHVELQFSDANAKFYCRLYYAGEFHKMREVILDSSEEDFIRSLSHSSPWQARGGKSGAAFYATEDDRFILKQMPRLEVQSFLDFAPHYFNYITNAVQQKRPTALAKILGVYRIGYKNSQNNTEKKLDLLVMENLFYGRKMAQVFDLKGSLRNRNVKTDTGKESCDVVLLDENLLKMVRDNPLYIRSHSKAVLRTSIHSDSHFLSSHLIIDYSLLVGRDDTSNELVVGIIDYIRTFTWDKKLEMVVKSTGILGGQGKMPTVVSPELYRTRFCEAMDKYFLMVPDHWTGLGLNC

SMILES | Kd [1] | IC50 [5] [nM] | inhibition at 3.3 µM [2] [%] | degree of vacuolation, 1 μM, 24 h [3] | degree of vacuolation, 1 μM, 48 h [3] | degree of vacuolation, 10 μM, 24 h [3] | degree of vacuolation, 10 μM, 48 h [3] | inhibition at 3.3 µM [4] [%] | inhibition at 10 µM [5] [%] | vacuolation of MDA-MB-231 cells (FIG. 1) ([3]; 1 μmol/L, time and concentration dependence)
c1cncc(-c2nc(Nc3cc(N4CCOCC4)cc(N4CCOCC4)c3)nc3cc[nH]c23)c1 [V-c-2] | 2000 nM |  | < 10 | − | − | − | − | 18 |  | 
Cc1cn(-c2cc(NC(=O)c3ccc(C)c(Nc4nc(-c5cccnc5)c5[nH]ccc5n4)c3)cc(C(F)(F)F)c2)cn1 [V-c-10] | 3500 nM |  | 94.8 | − | − | ++ | ++ | 93 |  | 
Cc1ccc(C(=O)Nc2ccc(CN3CCN(C)CC3)c(C(F)(F)F)c2)cc1Nc1nc(-c2cccnc2)c2[nH]ccc2n1 [V-c-11] | 700 nM |  | 95.3 | − | − | − | − | 96.2 |  | 
COc1ccc(C(F)(F)F)cc1NC(=O)c1ccc(C)c(Nc2nc(-c3cccnc3)c3[nH]ccc3n2)c1 [V-c-12] | > 30000 nM | 2790 | 95.6 | +++ | +++ | +++ | +++ | 72.3 |  | 
Cc1ccc(NC(=O)c2cccc(C(F)(F)F)c2)cc1Nc1nc(-c2cccnc2)c2[nH]ccc2n1 [V-c-19] | 16 nM and 15 nM | 2090 | 97.3 | +++ | +++ | +++ | +++ | 70.6 |  | induces vacuolation of MDA-MB-231 cells, with good time dependence; also recorded: induces vacuolation of MDA-MB-231 cells, with good concentration dependence
Cc1ccc(NC(=O)c2ccc(CN3CCN(C)CC3)c(C(F)(F)F)c2)cc1Nc1nc(-c2cccnc2)c2[nH]ccc2n1 [V-c-22] | 21000 nM | 1540 | 64.2 |  |  |  |  | 57.1 |  | 
Cc1ccc(NC(=O)c2cccc(C(F)(F)F)c2)cc1Nc1nc(-c2cccnc2)c2c(ccn2C)n1 [V-c-40] | 380 nM |  | 98.8 | + | +++ | + | +++ | 57.1 |  | 

More lines, main results first:

Kd [1] | IC50 [5] [nM] | SMILES | inhibition at 3.3 µM [2] [%] | degree of vacuolation, 1 μM, 24 h [3] | degree of vacuolation, 1 μM, 48 h [3] | degree of vacuolation, 10 μM, 24 h [3] | degree of vacuolation, 10 μM, 48 h [3] | inhibition at 3.3 µM [4] [%] | inhibition at 10 µM [5] [%] | vacuolation of MDA-MB-231 cells (FIG. 1) ([3]; 1 μmol/L, time and concentration dependence)
33 nM | 5940 | O=C(Nc1cccc(C(F)(F)F)c1)c1cccc(Nc2nc(-c3cccnc3)c3[nH]ccc3n2)c1 [V-c-4] | 99.5 | ++ | ++ | +++ | +++ | 76.2 |  | 
16 nM | 4950 | Cc1ccc(C(=O)Nc2cccc(NS(C)(=O)=O)c2)cc1Nc1nc(-c2cccnc2)c2[nH]ccc2n1 [V-c-6] | 93.9 | + | ++ | +++ | +++ | 69.9 |  | 
13 nM |  | Cc1ccc(C(=O)Nc2cccc(OC(F)(F)F)c2)cc1Nc1nc(-c2cccnc2)c2[nH]ccc2n1 [V-c-8] | 96.3 | +++ | +++ | +++ | +++ | 51 | 39 | 
16 nM |  | Cc1ccc(C(=O)Nc2cc(C(F)(F)F)ccc2F)cc1Nc1nc(-c2cccnc2)c2[nH]ccc2n1 [V-c-13] | 99.7 | ++ | − | ++ | ++ | 85.2 | 34.3 | 
20 nM |  | Cc1ccc(C(=O)Nc2cc(C(F)(F)F)ccc2Cl)cc1Nc1nc(-c2cccnc2)c2[nH]ccc2n1 [V-c-14] | 99.6 | ++ | − | ++ | ++ | 52.2 | 46.6 | 
140 nM |  | Cc1ccc(NC(=O)Nc2cccc(C(F)(F)F)c2)cc1Nc1nc(-c2cccnc2)c2[nH]ccc2n1 [V-c-15] | 99.6 | ++ | ++ | ++ | ++ | 57.5 | 35.1 | 
110 nM | 6220 | Cc1ccc(NC(=S)Nc2cccc(C(F)(F)F)c2)cc1Nc1nc(-c2cccnc2)c2[nH]ccc2n1 [V-c-16] | 99.5 | ++ | ++ | ++ | ++ | 60.3 |  | 
6.4 nM | 862 | O=C(Nc1cccc(Nc2nc(-c3cccnc3)c3[nH]ccc3n2)c1)c1cccc(C(F)(F)F)c1 [V-c-18] | 95.2 | +++ | +++ | +++ | +++ | 96 |  | 
